Legend:
[1] = system: velvetleaf; experiment: Test B pre-/postemergence herbicide test; type: in vivo, Abutilon theophrasti; conditions: for Velvetleaf plant response rating: scale 0 (no effect) to 100 (complete control)
Outline: (§1)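 Plants compared with untreated controls 13–15 days post-treatment and given a visual 0–100 injury score. Applications: preemergence to seeds; postemergence at 1- to 4-leaf (2–18 cm); paddy species flooded, 2-leaf stage. Vehicle non-phytotoxic, surfactant included.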

[2] = system: ducksalad; experiment: Test C flooded paddy test; type: in vivo, Heteranthera limosa
[3] = system: barnyardgrass; experiment: Test B flooded paddy test; type: in vivo, Echinochloa crus-galli; conditions: 1000 g ai/ha, scale 0 to 100 (0 no effect, 100 complete control)
Outline: (§2)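 Read-out: visual comparison with controls, scored 0 to 100, where 100 means complete control and 0 no effect. Formulated chemicals were applied postemergence to plants 2–18 cm tall (1- to 4-leaf), or to flooded-paddy plants at the 2-leaf stage, then held 13 to 15 days under glass.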

[4] = system: rice; experiment: Test C flooded paddy test; type: in vivo, Oryza sativa
Outline: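 Injury scored visually against controls on a 0 (no effect) to 100 (complete control) scale, 12 to 14 days after treatment in greenhouse. Flooded paddy plants treated at 2-leaf stage; postemergence plants at 1- to 4-leaf stage, 2 to 18 cm tall.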

[5] = system: corn; experiment: Test B pre-/postemergence herbicide test; type: in vivo, Zea mays; conditions: for Corn plant response rating: scale 0 (no effect) to 100 (complete control)
Outline: as §1

[6] = system: large crabgrass; experiment: Test B pre-/postemergence herbicide test; type: in vivo, Digitaria sanguinalis; conditions: for Crabgrass, Large plant response rating: scale 0 (no effect) to 100 (complete control)
Outline: as §1

[7] = system: lambsquarters; experiment: Test B pre-/postemergence herbicide test; type: in vivo, Chenopodium album; conditions: for Lambsquarters plant response rating: scale 0 (no effect) to 100 (complete control)
Outline: as §1

[8] = system: barnyardgrass; experiment: Test C flooded paddy test; type: in vivo, Echinochloa crus-galli
Outline: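 Postemergence sprays were applied to plants 2 to 18 cm tall (1- to 4-leaf stage); in the flooded paddy test, barnyardgrass was grown to the 2-leaf stage. After 12 to 14 days in a greenhouse, injury was visually rated against untreated controls on a 0–100 scale (100 = complete control).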

[9] = system: smallflower umbrella sedge; experiment: Test C flooded paddy test; type: in vivo, Cyperus difformis
[10] = system: ducksalad; experiment: Test B flooded paddy test; type: in vivo, Heteranthera limosa; conditions: 1000 g ai/ha, scale 0 to 100 (0 no effect, 100 complete control)
Outline: as §2

[11] = system: rice; experiment: Test B flooded paddy test; type: in vivo, Oryza sativa; conditions: 1000 g ai/ha, scale 0 to 100 (0 no effect, 100 complete control)
Outline: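 Formulated test chemicals went onto postemergence plants measuring 2 to 18 cm, at one to four leaves. For the paddy assay, species had reached two leaves. Scoring took place 13–15 days later by eye, relative to untreated plants, using 0 for no effect up to 100 for full control.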

[12] = system: giant foxtail; experiment: Test B pre-/postemergence herbicide test; type: in vivo, Setaria faberi; conditions: for Foxtail, Giant plant response rating: scale 0 (no effect) to 100 (complete control)
Outline: as §1

[13] = system: Surinam grass; experiment: Test B pre-/postemergence herbicide test; type: in vivo, Urochloa decumbens; conditions: for Surinam Grass plant response rating: scale 0 (no effect) to 100 (complete control)
Outline: as §1

[14] = system: wild oat; experiment: Test B postemergence herbicide test; type: in vivo, Avena fatua; conditions: scale 0 (no effect) to 100 (complete control)
Outline: as §2

[15] = system: small flower umbrella sedge; experiment: Test B flooded paddy test; type: in vivo, Cyperus difformis; conditions: 1000 g ai/ha, scale 0 to 100 (0 no effect, 100 complete control)
Outline: as §2

[16] = system: wheat; experiment: Test B postemergence herbicide test; type: in vivo, Triticum aestivum; design: key to Wheat plant response rating: 0 = no effect, 100 = complete control
Outline: as §2

[17] = system: barnyardgrass; experiment: Test B pre-/postemergence herbicide test; type: in vivo, Echinochloa crus-galli; conditions: for Barnyardgrass plant response rating: scale 0 (no effect) to 100 (complete control)
Outline: (§3)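 Pre: seeds sown, then sprayed. Post: 1–4-leaf plants (2–18 cm) sprayed at the same time. Paddy: flooded, treated at 2-leaf stage. Formulation: non-phytotoxic solvent with surfactant. Greenhouse 13–15 days; visual 0–100 score relative to controls.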

[18] = system: morningglory; experiment: Test B pre-/postemergence herbicide test; type: in vivo, Ipomoea coccinea; conditions: for Morningglory plant response rating: scale 0 (no effect) to 100 (complete control)
Outline: as §3

[19] = system: blackgrass; experiment: Test B postemergence herbicide test; type: in vivo, Alopecurus myosuroides; conditions: scale 0 (no effect) to 100 (complete control)
Outline: as §2

[20] = system: pigweed; experiment: Test B pre-/postemergence herbicide test; type: in vivo, Amaranthus retroflexus; conditions: for Pigweed plant response rating: scale 0 (no effect) to 100 (complete control)
Outline: as §1

[21] = system: cocklebur; experiment: Test B pre-/postemergence herbicide test; type: in vivo, Xanthium strumarium; conditions: for Cocklebur plant response rating: scale 0 (no effect) to 100 (complete control)
Outline: as §3

[22] = 125 g ai/ha, 0 is no effect, 100 is complete control, preemergence
[23] = 125 g ai/ha, visual rating, postemergence
[24] = 125 g ai/ha, scale 0 to 100 (0 no effect, 100 complete control)
[25] = 250 g ai/ha, scale of 0 to 100, 0 is no effect, 100 is complete control
[26] = 500 g ai/ha, visual rating after 12 to 14 days, scale 0 to 100 (0 no effect, 100 complete control)

Cc1nn(C(C)C)nc1C(=O)Nc1cccc(C(=O)N2CC=CC2)c1 [Compound 406]
Plant response rating (0 to 100 scale), Velvetleaf [1, 22]: 10 | Velvetleaf plant response rating [1, 23]: 20 | Velvetleaf plant response rating ([1]; Postemergence, 500 g ai/ha): 30 | Ducksalad plant response rating ([2]; 62 g ai/ha, scale 0 to 100): 20 | Ducksalad plant response rating [2, 24]: 20 | Ducksalad plant response rating [2, 25]: 50 | Plant response rating, Ducksalad [2, 26]: 75 | Barnyardgrass plant response rating [3]: 90 | Rice plant response rating ([4]; 62 g ai/ha, scale 0 to 100): 20 | Rice plant response rating [4, 24]: 35 | Rice plant response rating [4, 25]: 40 | Plant response rating, Rice [4, 26]: 45 | Plant response rating (0 to 100 scale), Corn [5, 22]: 0 | Corn plant response rating [5, 23]: 0 | Corn plant response rating ([5]; Postemergence, 500 g ai/ha): 10 | Plant response rating (0 to 100 scale), Crabgrass, Large [6, 22]: 90 | Crabgrass, Large plant response rating [6, 23]: 10 | Crabgrass, Large plant response rating ([6]; Postemergence, 500 g ai/ha): 20 | Plant response rating (0 to 100 scale), Lambsquarters [7, 22]: 90 | Lambsquarters plant response rating [7, 23]: 50 | Lambsquarters plant response rating ([7]; Postemergence, 500 g ai/ha): 60 | Barnyardgrass plant response rating ([8]; 62 g ai/ha, scale 0 to 100 (0 no effect, 100 complete control)): 10 | Barnyardgrass plant response rating [8, 24]: 25 | Barnyardgrass plant response rating [8, 25]: 30 | Plant response rating, Barnyardgrass [8, 26]: 40 | Sedge, Umbrella plant response rating ([9]; 62 g ai/ha, scale 0 to 100): 75 | Sedge, Umbrella plant response rating [9, 24]: 75 | Sedge, Umbrella plant response rating [9, 25]: 75 | Plant response rating, Sedge, Umbrella [9, 26]: 75 | Ducksalad plant response rating [10]: 90 | Rice plant response rating [11]: 60 | Plant response rating (0 to 100 scale), Foxtail, Giant [12, 22]: 20 | Foxtail, Giant plant response rating [12, 23]: 30 | Foxtail, Giant plant response rating ([12]; Postemergence, 500 g ai/ha): 40 | Plant response rating (0 to 100 scale), Surinam Grass [13, 22]: 20 | Surinam Grass plant response rating [13, 23]: 0 | Surinam Grass plant response rating ([13]; Postemergence, 500 g ai/ha): 20 | Oat, Wild plant response rating [14, 23]: 0 | Oat, Wild plant response rating ([14]; Postemergence, 500 g ai/ha): 10 | Sedge, Umbrella plant response rating [15]: 90 | Wheat plant response rating ([16]; 125 g ai/ha, visual rating, scale 0 (no effect) to 100 (complete control), postemergence): 0 | Wheat plant response rating ([16]; 500 g ai/ha, scale 0 to 100, 0 no effect, 100 complete control, preemergence): 40 | Wheat plant response rating ([16]; Postemergence, 500 g ai/ha, scale 0 (no effect) to 100 (complete control)): 0 | Plant response rating (0 to 100 scale), Barnyardgrass [17, 22]: 40 | Barnyardgrass plant response rating [17, 23]: 10 | Barnyardgrass plant response rating ([17]; Postemergence, 500 g ai/ha): 20 | Plant response rating (0 to 100 scale), Morningglory [18, 22]: 10 | Morningglory plant response rating [18, 23]: 20 | Morningglory plant response rating ([18]; Postemergence, 500 g ai/ha): 60 | Blackgrass plant response rating [19, 23]: 10 | Blackgrass plant response rating ([19]; Postemergence, 500 g ai/ha): 20 | Plant response rating (0 to 100 scale), Pigweed [20, 22]: 50 | Pigweed plant response rating [20, 23]: 40 | Pigweed plant response rating ([20]; Postemergence, 500 g ai/ha): 50 | Plant response rating (0 to 100 scale), Cocklebur [21, 22]: 0 | Cocklebur plant response rating [21, 23]: 20 | Cocklebur plant response rating ([21]; Postemergence, 500 g ai/ha): 50
